Results reported in publication PMC9318536, “Novel Cyclic Peptides for Targeting EGFR and EGRvIII Mutation for Drug Delivery” (Pharmaceutics, 2022).
Entries after “also recorded” stand apart in the source; their conditions may differ. Like-named read-outs stand apart in the source and are kept apart here. Marks after values point to notes of the source that are not given here. Positions of bridges follow the written chain, without caps; N, C: chain ends. Residues, ends and D or L forms follow the SMILES beside them. No end group written: not given here. *: point of attachment. Camptothecin(20S-OCO) = CC[C@@]1(OC(=O)*)C(=O)OCc2c1cc1n(c2=O)Cc2cc3ccccc3nc2-1; GABA = NCCCC(=O)O

Key:
[1] = molecular target: T1, EGFR on H1299 cells (Homo sapiens, UniProt P00533); assay: Competitive binding assay with EGF by FACS; format: cell-based; settings: H1299, 2.5 µM FITC-labeled peptides with or without 80 nM EGF, 4 °C 1 h then 37 °C 15 min, duplicate
T1 construct: H1299, H1975, and DKMG cells were characterized by cell surface overexpression of EGFR; endogenous in cells; host or cells: H1299 cells (ATCC)
Description: H1299 and DKMG cell lines were cultured in a complete RPMI growth medium in a 6-well plate overnight, until 80% confluent. Pre-incubation was performed with a blocking buffer consisting of 5 mg/mL BSA in PBS, pH 7.4, at 4 °C for 30 min. Then, cells were washed twice in PBS and incubated with 2.5 µM of FITC-labeled peptides with or without 80 nM EGF at 4 °C for 1 h. The cells were then incubated for 15 min at 37 °C under 5% CO2 to allow for peptide internalization. The cells were washed twice by centrifugation at 265× g for 5 min and analyzed by flow cytometry.
Figure 3 Competitive uptake of P3, P4, P5, P6, P9, and P11 peptides by FACS. Fluorescence was measured for H1299 cells (30,000 cells) after incubation with (2.5 µM) P3–P6, P9, and P11 by FITC-labeled peptides in the absence or presence of 80 nM of the EGF protein. The experiments were performed in duplicate. For each sample, the mean ± SD is shown (** p < 0.01, *** p < 0.001).

[2] = tested on: H1299 cells; assay: XTT cytotoxicity of peptides, peptide-CPT conjugates and CPT on H1299 cells; settings: for cell viability relative to control untreated cells (IC50 could not be calculated): H1299, XTT; for IC50: Homo sapiens
Description: (§1) Cell growth in the presence of PDCs was measured by a commercial XTT assay kit (Cell Proliferation Kit, XTT based; Sartorius, Israel). The cells were seeded in 96-well plates (10^4 cells/well) and incubated overnight in a complete growth medium. They were then washed and re-cultured in 100 µL of fresh complete medium containing various concentrations of free drugs or PDCs, for 24, 48, and 72 h. The XTT solution was added to each well and the plate was further incubated for 2–3 h at 37 °C. The optical densities in the wells were measured at both 480 and 680 nm using a TECAN Infinite M200 ELISA reader. All tests were performed in triplicate, and each experiment was repeated three times.
(§2) The cytotoxicity of the PDCs was tested against H1299 and DKMG cells using two protocols. In the first protocol, cells were incubated in a complete medium containing a range of concentrations (0.5–50 µM) of P6, P9, P6-CPT, or P9-CPT for 6 h, after which, the medium was replaced with fresh, drug-free, complete medium, and the cells were cultured for an additional 24 h (designated as 6h24h) or 48 h (6h48h). In the second protocol, cells were exposed continuously to free drugs or PDCs for 24, 48, and 72 h. For each case, during the culture period, cell cytotoxicity was determined as described above and IC50 values were calculated.

[3] = Drug release / PDC breakdown in complete growth medium; format: in vitro ADME; settings: RPMI and DMEM complete growth media, 37 °C, 0–72 h, LC–MS, triplicate
Description: PDC breakdown rates were determined as described elsewhere. Briefly, peptide-FITC and peptide–CPT conjugates were incubated at 37 °C in 1 mL of DMEM or RPMI full-growth medium for […], 3, 7, 24, 48, and 72 h. At each time point, 10 µL of the sample was taken and mixed with 25 µL ACN/H20 (1:1, v/v.). The samples were centrifuged at 1400 rpm for 15 min. Supernatants were collected, filtered, and analyzed by liquid chromatography–mass spectrometry (LC–MS).
The release rates of CPT from P6-CPT and P9-CPT were measured in RPMI and DMEM complete growth media at 37 °C for 0, 0.5, 3, 7, 24, 48, and 72 h according to the procedure. The degradation of the conjugates and the CPT release were analyzed by LC–MS. […] The conjugates degraded with a half-life of 6–7 h (Figure 8).

[4] = tested on: DKMG cells; assay: XTT cytotoxicity of peptides, peptide-CPT conjugates and CPT on DKMG cells; format: cell-based; settings: for cell viability relative to control untreated cells (IC50 could not be calculated) / IC50 / effect on cell viability (in words): XTT; for IC50: non-linear regression, mean ± SD, triplicate; for effect on cell viability (in words): 24 h pre-incubation protocol
Description: as §1, §2

[5] = H1299, first protocol (6 h preincubation, then up to 48 h), XTT
[6] = 6 h exposure then 24 h drug-free medium (6h24h), 0.5–50 µM

Compound	competition of EGF with peptide uptake [1]	cytotoxic effect (in words) [2, 5]	half-life of conjugate degradation (CPT release) [3] [h]	effect on cell viability (in words) [4]	cytotoxic effect (in words) [2]	further results
CAQYTPGRC (disulfide 1-9) [P11]	EGF significantly competed	–	–	–	–	–
CC[C@H](C)[C@@H]1NC(=O)[C@H](Cc2ccc(O)cc2)NC(=O)[C@H](CO)NC(=O)CNC(=O)[C@@H]2CCCN2C(=O)[C@H](C(C)C)NC(=O)[C@H](Cc2cnc[nH]2)NC(=O)[C@@H](NC(=O)CCCNC(=O)O[C@]2(CC)C(=O)OCc3c2cc2n(c3=O)Cc3cc4ccccc4nc3-2)CSSC[C@@H](C(N)=O)NC1=O [P6-CPT] ({Camptothecin(20S-OCO)-GABA}-CHVPGSYIC-NH2; disulfide 1-9)	–	exhibited cytotoxic effects after 48 h	6 to 7	–	–	–
CC[C@@]1(O)C(=O)OCc2c1cc1n(c2=O)Cc2cc3ccccc3nc2-1 [CPT, camptothecin]	–	–	–	–	–	cell viability relative to control untreated cells (IC50 could not be calculated) [4, 6]: >50% *; IC50 ([4]; 6 h exposure then 48 h in drug-free medium (6h48h), 0.5–50 µM): 8.5 ± 1 µM; IC50 ([4]; continuous exposure 24 h): 25 ± 1.3 µM; cell viability relative to control untreated cells (IC50 could not be calculated) ([4]; continuous exposure 48 h): <50% **; cell viability relative to control untreated cells (IC50 could not be calculated) ([4]; continuous exposure 72 h): <40% **; cell viability relative to control untreated cells (IC50 could not be calculated) [2, 6]: >50% *; cell viability relative to control untreated cells (IC50 could not be calculated) ([2]; continuous exposure 48 h): <45%; cell viability relative to control untreated cells (IC50 could not be calculated) ([2]; continuous exposure 72 h): <15%; IC50 ([2]; NCI-H1299): 6.7 ± 1.8 µM; IC50 ([2]; NCI-H1299, 24 h): 54.8 ± 2 µM
CC[C@@]1(OC(=O)NCCCC(=O)N[C@H]2CSSC[C@@H](C(N)=O)NC(=O)[C@H](Cc3ccc(O)cc3)NC(=O)[C@H](CO)NC(=O)[C@H](CCC(N)=O)NC(=O)[C@H](CCSC)NC(=O)[C@H](C)NC(=O)[C@H](CC(N)=O)NC(=O)[C@H](C(C)C)NC2=O)C(=O)OCc2c1cc1n(c2=O)Cc2cc3ccccc3nc2-1 [P9-CPT] ({Camptothecin(20S-OCO)-GABA}-CVNAMQSYC-NH2; disulfide 1-9; C-terminus assumed)	–	exhibited cytotoxic effects after 48 h	6 to 7	did not affect cell viability	–	IC50 compared to free CPT ([4]; 6 h exposure then 48 h): four-fold higher
CSCC[C@@H]1NC(=O)[C@H](C)NC(=O)[C@H](CC(N)=O)NC(=O)[C@H](C(C)C)NC(=O)[C@@H](N)CSSC[C@@H](C(=O)O)NC(=O)[C@H](Cc2ccc(O)cc2)NC(=O)[C@H](CO)NC(=O)[C@H](CCC(N)=O)NC1=O [P9] (H-CVNAMQSYC-OH; disulfide 1-9)	EGF significantly competed; also recorded: better competition with EGF compared to P11	–	–	did not affect cell viability	not toxic	–
CC[C@H](C)[C@@H]1NC(=O)[C@H](Cc2ccc(O)cc2)NC(=O)[C@H](CO)NC(=O)CNC(=O)[C@@H]2CCCN2C(=O)[C@H](C(C)C)NC(=O)[C@H](Cc2c[nH]cn2)NC(=O)[C@@H](N)CSSC[C@@H](C(=O)O)NC1=O [P6] (H-CHVPGSYIC-OH; disulfide 1-9)	better competition with EGF compared to P11	–	–	–	not toxic	–
